Values after ≈ are worked out from the molar mass of the structure shown. Active and inactive are the calls of the source. No cut-off for these calls is given here.
Legend:
BT-20 = experiment: Growth inhibition of human BT20 cells by MTT assay; type: functional, cell-based
HeLa = experiment: Cytotoxicity against human HeLa cells by MTT assay; type: functional, cell-based
Biomphalaria glabrata = experiment: Molluscicidal activity against Biomphalaria glabrata; type: functional

SMILES	growth inhibition (GI) (BT-20)	IC50 (HeLa)	LC50 (Biomphalaria glabrata)
COc1cc2[nH]c3c(OC)c(OC)ccc3c(=O)c2c(O)c1OC [CUSPANINE]	Active	2.5 µg/mL (≈ 7.55 µM)	5 µg/mL (≈ 15.1 µM)
COc1cc2[nH]c3c(OC)c(OC)ccc3c(=O)c2c(OC)c1OC [CUSCULINE]	Active	8.5 µg/mL (≈ 24.6 µM)	20 µg/mL (≈ 57.9 µM)
